We go through 3 compounds from patent US20090203577A1 (EXELIXIS, INC., priority 2005, published 2009).

The test system of assay [1] is patients with hypertriglyceridemia. As to conditions: cited from earlier work.
For another assay, the system named is male LDLR−/− mice. Briefly: Compound effects in diet-induced hyperlipidemic LDLR-/- mice (plasma triglyceride and cholesterol). In kind it is in vivo, mouse. As to the method: Young adult male mice (˜8 weeks of age) were purchased from conventional vendors and group housed (3-4/cage) with ad libitum access to chow and water, in a temperature- and light-controlled vivarium (lights on at 06:00 hours, off at 18:00 hours). Compounds were administered daily by oral gavage in the morning (˜08:00 hrs), in a final volume of 0.1 ml/mouse, with the first dose of compound delivered on study day 0. Compounds were solubilized by gentle mixing in PEG400:Tween80 (4:1) for at least several hours and usually overnight prior to initiation of dosing. When necessary, solutions were sonicated briefly to ensure complete compound solubilization.
Blood samples (˜0.15 ml/mouse) were obtained from the retro-orbital sinus of non-fasted isoflurane-anesthetized mice, 3 hours after drug dosing. Blood samples were collected into heparin-coated tubes, and plasma was recovered following centrifugation. Plasma total cholesterol and triglyceride levels were determined by […] enzymatic commercially available assays that were adapted to 96-well plate formats. Plasma HDL cholesterol (HDL-C) was determined by removing non-HDL-C from the plasma with a precipitating reagent, and then determining the plasma cholesterol levels in the remaining HDL-C fraction. Plasma triglycerides concentrations, determined from a blood sample obtained in the 24 hours prior to the first dose, were used to group the mice such that the pre-study triglyceride levels between groups were equivalent prior to initiation of the dosing regimen.
Male LDLR^−/− mice (JAX Mice, Bar Harbor, Me.) consumed a purified “Western” diet (˜21% fat, 0.02% cholesterol w/w) ad libitum, for two weeks prior to and during treatment with Compound C daily by oral gavage at a dose of 10 mg/kg/day for 7 days (n=9-10/group).
In a separate study utilizing the same mouse model ([…]) subjected to the dietary lead-in for 8 weeks, LDLR^−/− mice were treated with Compound B at a dose of 10 mg/kg/day for 6 weeks.

Where [2] appears, read: Western diet 8 weeks lead-in, 10 mg/kg/day for 6 weeks.

On to `C[C@H](CCC(=O)O)[C@H]1CC[C@H]2[C@@H]3[C@H](O)C[C@@H]4C[C@H](O)CC[C@]4(C)[C@H]3CC[C@]12C` [CDCA, chenodeoxycholic acid], for which, in assay [1], the plasma triglyceride levels entry was “significantly lowers”.
Turning to `CCOC(=O)C1=CN(C(=O)c2ccc(F)c(F)c2)CC(C)(C)c2c1[nH]c1ccccc21` [Compound B, Ethyl 3-(3,4-difluorobenzoyl)-1,1-dimethyl-1,2,3,6-tetrahydro-azepino[4,5-b]indole-5-carboxylate], in the assay on male LDLR−/− mice (setting [2]), the plasma cholesterol concentrations entry is given as “lowered” and the plasma triglyceride concentrations result is “lowered”.
As to `CC(C)OC(=O)C1=CN(C(=O)c2ccc(F)c(F)c2)CC(C)(C)c2c1[nH]c1ccccc21` [Compound C, isopropyl 3-(3,4-difluorobenzoyl)-1,1-dimethyl-1,2,3,6-tetrahydroazepino[4,5-b]indole-5-carboxylate], the plasma triglyceride concentrations result with male LDLR−/− mice (Western diet 2 weeks lead-in, 10 mg/kg/day oral gavage, study day 7) was “reduced plasma triglyceride concentrations to the level observed prior to introduction of the high-fat chow”. Besides, in the assay with male LDLR−/− mice (Western diet 2 weeks lead-in, 10 mg/kg/day oral gavage, study day 7, p<0.05 vs. vehicle), the “lowering of plasma total cholesterol levels” value is reported as approximately 40%. Moreover, in the assay with male LDLR−/− mice (daily dosing throughout the 6 weeks of study, continued Western diet), the plasma lipid profiles result was “sustained normalization”.
